Drawing on PMC2644664, “Effects of the K65R and K65R/M184V reverse transcriptase mutations in subtype C HIV on enzyme function and drug resistance” (Retrovirology, 2009), this text covers IC50, Ki and Km for 2 compounds.

As usually defined, the IC50 is the concentration that inhibits the measured activity by half. For orientation: Ki means the dissociation constant of the complex between target and ligand, obtained from inhibition or displacement. As usually defined, the Km is the concentration of substrate that gives half-maximal velocity.

Experiment [1] concerns T1, subtype C HIV-1 RT (cWT), recombinant p66/p51 heterodimer.
T1 construct: gene pol; mature RT cut from Gag-Pol polyprotein; plasmid pcRT6H-PROT, His-tagged, E. coli M15(pREP4); with p51 RT
Put plainly: gel-based primer extension, inhibition of full-length DNA synthesis. It is filed as biochemical, Human immunodeficiency virus type 1. Conditions: 19D/57D DNA primer/template. The source says: gel-based primer extension, inhibition of full-length DNA synthesis on subtype C HIV-1 RT (cWT), recombinant p66/p51 heterodimer | we determined the efficiencies of incorporation of TFV-DP using subtype C WT

The target in experiment [2] is T1, subtype C HIV-1 RT (cWT), recombinant p66/p51 heterodimer. The experiment in a line: steady-state filter-binding assay, [3H]dATP incorporation. The conditions noted are these: dPR primer on subtype C HIV-1 PBS RNA, 50 μM dCTP/dGTP/dTTP, 5 mM MgCl2, pH 7.8, 37°C. It is filed as biochemical, Human immunodeficiency virus type 1. The source says: steady-state filter-binding assay, [3H]dATP incorporation on subtype C HIV-1 RT (cWT), recombinant p66/p51 heterodimer

SMILES strings stand for the structures.

As for `C[C@H](Cn1cnc2c(N)ncnc21)OCP(=O)(O)OP(=O)(O)OP(=O)(O)O` [TFV-DP], the half-maximal inhibitory concentration (IC50) in experiment [1] is 2600 ± 500 nM. Moreover, the inhibitory constant (Ki) in experiment [2] (variable dATP, chain terminator, read-out: Ki(TFV), μM^b) was 0.24 ± 0.04 µM.
For `Nc1ncnc2c1ncn2[C@H]1C[C@H](O)[C@@H](COP(=O)(O)OP(=O)(O)OP(=O)(O)O)O1` [dATP], in experiment [2] (no TFV-DP), the Michaelis constant (Km) worked out at 0.51 ± 0.04 µM.
